The subject of the experiment is 379773-124-R-J2-PDC spheroid viability. In words: Anticancer human tumor 379773-124-R-J2-PDC patient-derived endometrial carcinoma cell line growth inhibition [POLQ]. Conditions: spheroids with HUVEC and MSC; for viability, T/C: stronger effect = lower value. Put shortly:
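Three-cell-type spheroids modelling solid tumor plus stroma served as the readout system; POL inhibitors were tested individually and in combination, concentration ranges set by clinical Cmax where known.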

The mark [1] stands for this setting: curve of first compound, second compound 0.0316 µM.
Setting [2] is: curve of first compound, second compound 0.1 µM.
[3] abbreviates: curve of first compound, second compound 0.316 µM.
Setting [4] is: curve of first compound, second compound 1 µM.
Where [5] appears, read: curve of first compound, second compound 3.16 µM.
Setting [6] is: curve of first compound, second compound 10 µM.
Setting [7] is: second compound 0.0316 µM, first compound 0.0316 µM.
[8] abbreviates: second compound 0.0316 µM, first compound 0.1 µM.
Setting [9] is: second compound 0.0316 µM, first compound 0.316 µM.
[10] abbreviates: second compound 0.0316 µM, first compound 1 µM.
The mark [11] stands for this setting: second compound 0.1 µM, first compound 0.0316 µM.
Where [12] appears, read: second compound 0.1 µM, first compound 0.1 µM.
Where [13] appears, read: second compound 0.1 µM, first compound 0.316 µM.
Where [14] appears, read: second compound 0.1 µM, first compound 1 µM.
Setting [15] is: second compound 0.316 µM, first compound 0.0316 µM.
Setting [16] is: second compound 0.316 µM, first compound 0.1 µM.
Setting [17] is: second compound 0.316 µM, first compound 0.316 µM.
Setting [18] is: second compound 0.316 µM, first compound 1 µM.
[19] abbreviates: second compound 1 µM, first compound 0.0316 µM.
[20] abbreviates: second compound 1 µM, first compound 0.1 µM.
The mark [21] stands for this setting: second compound 1 µM, first compound 0.316 µM.
Where [22] appears, read: second compound 1 µM, first compound 1 µM.
[23] abbreviates: second compound 3.16 µM, first compound 0.0316 µM.
[24] abbreviates: second compound 3.16 µM, first compound 0.1 µM.
The mark [25] stands for this setting: second compound 3.16 µM, first compound 0.316 µM.
Setting [26] is: second compound 3.16 µM, first compound 1 µM.
The mark [27] stands for this setting: second compound 10 µM, first compound 0.0316 µM.
[28] abbreviates: second compound 10 µM, first compound 0.1 µM.
Where [29] appears, read: second compound 10 µM, first compound 0.316 µM.
Setting [30] is: second compound 10 µM, first compound 1 µM.

Structures are written as SMILES. Where “and” joins values, the source holds several entries; their conditions need not be identical. Identical values can stand only once.
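Further: spheroids exposed to drugs for seven days before readout.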
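Wherever viability, T/C is given: percent viability relative to DMSO vehicle control taken as 100%.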

Take `Nc1ccn(C2OC(CO)C(O)C2(F)F)c(=O)n1` (stereo not given): the viability, T/C (as a rule, the result in the treated group divided by that in the control group, in per cent) is 25.4% and 19.1% and 15.5% (compound 0.0316 µM); 8.86% and 11.2% and 9% (compound 0.1 µM); 8.47% and 12.9% and 7.5% (compound 0.316 µM); 10.6% and 10.1% and 9.75% (compound 1 µM); 10.8% and 13.3% and 10.3% (compound 3.16 µM); 7.47% and 10.7% and 7.2% (compound 10 µM). For the setting “curve of compound”, the IC50 – broadly, the concentration at which inhibition is half-maximal – is under 31.6 nM.

For the molecule `CC(C)n1c(=O)n(C)c2cnc3cc(F)c(-c4ccc(OCCCN5CCCCC5)nc4)cc3c21`, the viability, T/C (compound 0.0316 µM) is 77.5% and 102% and 83.2%; the viability, T/C (compound 0.1 µM) was 79.5% and 84.1% and 87.8%; the viability, T/C (compound 0.316 µM) is 78.7% and 88.7% and 68%; the viability, T/C (compound 1 µM) is 76.8% and 87.2% and 74.2%; the viability, T/C (compound 3.16 µM) was 80% and 93.2% and 82.2%; the viability, T/C (compound 10 µM) is 53.6% and 72.2% and 62.8%. The IC50 (curve of compound) is over 10000 nM.

For the molecule `COc1cccc(OCCCN)c1-c1cc(Nc2cnc(C#N)cn2)n[nH]1`, the viability, T/C is 71.1% and 84.4% and 94.5% (compound 0.00316 µM); 4.45% and 22.9% and 22% (compound 0.01 µM); 2.75% and 2.85% and 3% (compound 0.0316 µM); 2.5% and 2.23% and 2.01% (compound 0.1 µM); 2.05% and 2.52% and 2.6% (compound 0.316 µM); 1.38% and 1.84% and 2.29% (compound 1 µM). Also, the IC50 (curve of compound) was 4.55 nM and 6.02 nM and 6.41 nM.

For `CCCS(=O)(=O)Nc1ccc(F)c(C(=O)c2c[nH]c3ncc(-c4ccc(Cl)cc4)cc23)c1F` + COC1C(OC(N)=O)C(O)C(Oc2ccc3c(O)c(NC(=O)c4ccc(O)c(CC=C(C)C)c4)c(=O)oc3c2C)OC1(C)C, the IC50 was over 10000 nM under setting [1]; over 10000 nM under setting [2]; over 10000 nM under setting [3]; over 10000 nM under setting [4]; over 10000 nM under setting [5]; over 10000 nM under setting [6]. In addition, the viability, T/C is 94.2% under setting [7]; 86.8% under setting [8]; 83.8% under setting [9]; 87.9% under setting [10]; 70.5% (second compound 0.0316 µM, first compound 3.16 µM); 57.9% (second compound 0.0316 µM, first compound 10 µM). Further, the viability, T/C runs as follows: under setting [11], 86.2%; under setting [12], 87.7%; under setting [13], 88.3%; under setting [14], 80.3%; (second compound 0.1 µM, first compound 3.16 µM) 73.1%; (second compound 0.1 µM, first compound 10 µM) 55.4%. Further, the viability, T/C under setting [15] is 77.1%; the viability, T/C under setting [16] was 75.6%; the viability, T/C under setting [17] is 76.8%; the viability, T/C under setting [18] is 77.6%; the viability, T/C (second compound 0.316 µM, first compound 3.16 µM) was 66.2%; the viability, T/C (second compound 0.316 µM, first compound 10 µM) was 52.9%. The viability, T/C is 87.6% under setting [19]; 84.4% under setting [20]; 81.8% under setting [21]; 77.8% under setting [22]; 73.6% (second compound 1 µM, first compound 3.16 µM); 58.9% (second compound 1 µM, first compound 10 µM). The viability, T/C is 73.5% under setting [23]; 76.2% under setting [24]; 75.8% under setting [25]; 76.4% under setting [26]; 75.7% (second compound 3.16 µM, first compound 3.16 µM); 61.3% (second compound 3.16 µM, first compound 10 µM). Also, the viability, T/C was 78.5% under setting [27]; 85.4% under setting [28]; 79.8% under setting [29]; 66.5% under setting [30]; 75.9% (second compound 10 µM, first compound 3.16 µM); 60.2% (second compound 10 µM, first compound 10 µM).

As to `CCCS(=O)(=O)Nc1ccc(F)c(C(=O)c2c[nH]c3ncc(-c4ccc(Cl)cc4)cc23)c1F`, the viability, T/C runs as follows: (compound 0.0316 µM) 95.9% and 86.2% and 78.9%; (compound 0.1 µM) 93.8% and 93.3% and 98.6%; (compound 0.316 µM) 87.6% and 96.1% and 91.3%; (compound 1 µM) 87% and 91% and 69%; (compound 3.16 µM) 84.2% and 84% and 74.1%; (compound 10 µM) 57.6% and 51.9% and 57.4%. In addition, the IC50 (curve of compound) was over 10000 nM.

For the molecule `CNCc1ccc(-c2[nH]c3cc(F)cc4c3c2CCNC4=O)cc1`, the viability, T/C was 79.5% and 90.1% and 98.3% (compound 0.0316 µM); 85.4% and 95.9% and 92.6% (compound 0.1 µM); 76.9% and 93.3% and 85.4% (compound 0.316 µM); 77.7% and 96% and 82.6% (compound 1 µM); 71.9% and 100% and 80.1% (compound 3.16 µM); 56.2% and 82.1% and 66.5% (compound 10 µM). The IC50 (curve of compound) is over 10000 nM.

As to `CC[C@@]1(O)C(=O)OCc2c1cc1n(c2=O)Cc2cc3c(CN(C)C)c(O)ccc3nc2-1`, the viability, T/C (compound 0.000316 µM) was 86.7% and 95.5% and 87.2%; the viability, T/C (compound 0.001 µM) was 82.9% and 87.3% and 91.6%; the viability, T/C (compound 0.00316 µM) is 97.8% and 92.2% and 75.9%; the viability, T/C (compound 0.01 µM) was 78.5% and 86.5% and 81.9%; the viability, T/C (compound 0.0316 µM) is 45.8% and 43% and 45.2%; the viability, T/C (compound 0.1 µM) was 14.7% and 26.1% and 10.6%. Also, where the note is “curve of compound”, the IC50 was 27.2 nM and 26.3 nM and 27.1 nM.

For the molecule `O=C(c1cc(Cc2n[nH]c(=O)c3ccccc23)ccc1F)N1CCN(C(=O)C2CC2)CC1`, the viability, T/C is 90.8% and 82.3% and 93.3% (compound 0.0316 µM); 87% and 88.1% and 91.8% (compound 0.1 µM); 74.1% and 91.5% and 88.4% (compound 0.316 µM); 75.1% and 96.4% and 97.2% (compound 1 µM); 86.8% and 84.9% and 86.2% (compound 3.16 µM); 44.5% and 34.6% and 49.8% (compound 10 µM). Moreover, the IC50 (curve of compound) was 8480 nM and 7080 nM and > 10000 nM.

Take `COc1cccc(OCCCN)c1-c1cc(Nc2cnc(C#N)cn2)n[nH]1` + COC1C(OC(N)=O)C(O)C(Oc2ccc3c(O)c(NC(=O)c4ccc(O)c(CC=C(C)C)c4)c(=O)oc3c2C)OC1(C)C: the IC50 turned out to be 4.43 nM under setting [1]; 3.53 nM under setting [2]; 3.5 nM under setting [3]; 4.46 nM under setting [4]; 3.76 nM under setting [5]; 3.81 nM under setting [6]. The viability, T/C by setting is: (second compound 0.0316 µM, first compound 0.00316 µM) 69.1%; (second compound 0.0316 µM, first compound 0.01 µM) 3.94%; under setting [7], 2.78%; under setting [8], 2%; under setting [9], 1.77%; under setting [10], 1.34%. The viability, T/C is 54.7% (second compound 0.1 µM, first compound 0.00316 µM); 5.02% (second compound 0.1 µM, first compound 0.01 µM); 2.47% under setting [11]; 1.87% under setting [12]; 2.26% under setting [13]; 1.32% under setting [14]. Besides, the viability, T/C was 54.3% (second compound 0.316 µM, first compound 0.00316 µM); 4.98% (second compound 0.316 µM, first compound 0.01 µM); 2.58% under setting [15]; 1.9% under setting [16]; 1.7% under setting [17]; 0.97% under setting [18]. Further, the viability, T/C by setting is: (second compound 1 µM, first compound 0.00316 µM) 69.2%; (second compound 1 µM, first compound 0.01 µM) 5.09%; under setting [19], 1.91%; under setting [20], 2%; under setting [21], 1.74%; under setting [22], 1.47%. The viability, T/C was 57.9% (second compound 3.16 µM, first compound 0.00316 µM); 5.31% (second compound 3.16 µM, first compound 0.01 µM); 2.5% under setting [23]; 2.18% under setting [24]; 1.81% under setting [25]; 1.54% under setting [26]. Further, the viability, T/C (second compound 10 µM, first compound 0.00316 µM) was 58.8%; the viability, T/C (second compound 10 µM, first compound 0.01 µM) was 4.41%; the viability, T/C under setting [27] is 2.84%; the viability, T/C under setting [28] was 2.3%; the viability, T/C under setting [29] was 3.07%; the viability, T/C under setting [30] is 1.39%.

In the case of `CC1COCCN1c1cc(C2(S(C)(=N)=O)CC2)nc(-c2ccnc3[nH]ccc23)n1` (stereo not given), the viability, T/C runs as follows: (compound 0.0316 µM) 78.3% and 87.6% and 81.5%; (compound 0.1 µM) 69.2% and 89.3% and 88.1%; (compound 0.316 µM) 71.7% and 86.7% and 72.9%; (compound 1 µM) 80.9% and 82.7% and 76.1%; (compound 3.16 µM) 34.5% and 44.9% and 28.5%; (compound 10 µM) 5.53% and 11.9% and 6.3%. The IC50 (curve of compound) was 2040 nM and 2710 nM and 1870 nM.

These data come from PubChem BioAssay AID1963848 (Molecular Pharmacology Branch, DTP, NCI, 2024).
